# Data published in patent US8278044B2, “Method for the identification of carcinogenic compounds” (priority 2008, dated 2012).
# Columns and labels:
# [1] = tested on: HepG2 cells; test: Flow cytometric analysis of cell cycle; assay type: cell-based, human; settings: 3 μM BaP
# Method: (§1) Two independent experiments were conducted.
# (§2) Analyses of cell cycle profiles and apoptosis was performed as previously described using a FACSort (Becton Dickinson, Sunnyvale, USA) (29). For DNA content cells were stained with propidium iodide; apoptotic cells were visualised with the primary antibody M30 CytoDeath (Roche, Penzberg, Germany) and FITC conjugated anti-mouse Ig as secondary antibody (DakoCytomation, Glostrup, Denmark). For each sample 10,000 cells were analyzed. Cells in the G0-1, S or G2-M phase were expressed as a percentage of the total number of cells.
# [2] = tested on: HepG2 cells; test: Gene expression analyses with DNA microarrays (Agilent), Reactome and T-profiler; assay type: cell-based, human; settings: 3 μM BaP
# Method: Labelling and hybridisation of RNA samples was done according to Agilent's manual for microarrays (Agilent Technologies, Breda, The Netherlands). […] For each biological experiment, two hybridizations per time point were conducted, with swapped Cy3 and Cy5 dyes.
# The images (10 micron resolution; 16 bit tiff) were processed with ImaGene 6.0 to quantify spot signals (BioDiscovery Inc., Los Angeles, USA). Irregular spots were automatically flagged and excluded from data analysis. Data from ImaGene were further processed with GeneSight 4.1.6 (BioDiscovery Inc., Los Angeles, USA). For each spot, background was subtracted and flagged spots as well as spots with a net expression level below 20 in both channels were omitted. Data were log base 2 transformed and LOWESS normalized. If for a gene more probes were on the array, replicates were averaged while omitting outliers (>2 standard deviations). Raw data are available at ArrayExpress (accession numbers E-TOXM-22 and E-TOXM-23, for the first and second experiment respectively) (www.ebi.ac.uk/arrayexpress/).
# Second, genes were selected by ANOVA using the plug-in “Time series analysis” from BRB Array Tools (version 3.4 and R version 2.2.0; linus.nci.nih.gov/BRB-ArrayTools.html) with “Time” as descriptor.
# Reactome (www.reactome.org; Version 25, August 2008) (45) is used to examine the biological processes that may be affected at the level of reactions and reaction pathways, a level of detail that cannot be obtained by gene ontology annotations, and KEGG and BioCarta pathways. Reactions are grouped into causal chains to form pathways. […] The ratio of these number of differentially genes per event with total numbers present in the set of 2808 genes, are used for visualisation of affected pathways. Rctions were ordered by main pathway and sub-pathway.
# T-profiler is used for functional annotation of pathways and processes in the complete data set of genes without pre-selecting modulated genes. T-profiler uses the unpaired t-test to score the difference between the mean expression level of predefined sets of genes and that of all other genes within the complete data set (46). […] Per experiment and time point t-values were determined for each gene set. Only gene sets with an absolute t-value>4 at at least 2 succeeding time points in both experiments were selected for further analyses.
# [3] = tested on: HepG2 cells; test: Flow cytometric analysis of apoptosis (M30 CytoDeath); assay type: cell-based; settings: human, 3 μM
# Method: as §1, §2
smiles,measurement,setting,value
"c1ccc2c(c1)cc1ccc3cccc4ccc2c1c34 [BaP, benzo[a]pyrene]",duration of S-phase accumulation,[1],6 to 18 h
same,time after which cell cycle distribution becomes similar to that of the controls,[1],about 54 h
same,S-phase cells,"[1]; at 18 h, concomitant decrease of cells in G1 and G2 phases",drastic increase
same,POLR2A expression (TC-NER),[2],upregulated at early time points
same,POLR2D expression (TC-NER),[2],downregulated at late time points
same,base excision repair and global genomic repair pathways,[2],induced from 9/12 h until 60 h
same,period of upregulation of DDB2 (GG-NER),[2],9 to 60 h
same,period of upregulation of GC-NER (global genomic NER) reaction pathway,[2],9 to 60 h
same,period of upregulation of TC-NER reaction pathway,[2],9 to 42 h
same,apoptotic cells levels,[3],0.5-3%
